Results as given in US8383139B2 (Bayer CropScience AG, priority 2008, dated 2013).

Columns and labels:
[1] = log P by HPLC on reversed-phase columns (C 18), EEC Directive 79/831 Annex V.A8; type: physicochemical; conditions: reversed-phase C18 HPLC column, pH 2.3, [a] HPLC, acid region pH 2.3, 0.1% aqueous phosphoric acid and acetonitrile; read-out: log p
Sphaerotheca fuliginea = experiment: Sphaerotheca test (cucumber)/protective; type: in vivo; conditions: Podosphaera fuliginea, 168 h, 500 ppm active substance, protective, evaluation 7 days after inoculation, read-out: degree of effectiveness
Method: • Solvents: 49 parts by weight of N,N-dimethylformamide • Emulsifier: 1 part by weight of alkylaryl polyglycol ether (polyoxyethylene (16) tristearylphenyl ether) To prepare a suitable active substance composition, 1 part by weight of active substance is mixed with the given amounts of solvents and emulsifier and the concentrate is diluted to the desired concentration using water. For the testing of protective effectiveness, young cucumber plants are sprayed with the active substance composition in the application rate given. One day after the treatment, the plants are inoculated with a suspension of spores of Sphaerotheca fuliginea. Subsequently, the plants are placed in a greenhouse at 70% relative humidity and at a temperature of 23° C. Evaluation is carried out 7 days after the inoculation. In this connection, 0% means a degree of effectiveness corresponding to that of the control, while a degree of effectiveness of 100% means that no infestation is observed.

Puccinia triticina = Puccinia triticina test (wheat)/protective; type: in vivo; conditions: 192 h, 500 ppm active substance, protective, evaluation 8 days after inoculation, read-out: degree of effectiveness
Method: • Solvent: 50 parts by weight of N,N-dimethylacetamide • Emulsifier: 1 part by weight of alkylaryl polyglycol ether (polyoxyethylene (16) tristearylphenyl ether) To prepare a suitable active substance composition, 1 part by weight of active substance is mixed with the given amounts of solvent and emulsifier and the concentrate is diluted to the desired concentration using water. For the testing of protective effectiveness, young plants are sprayed with the active substance composition in the application rate given. After the spray coating has been dried on, the plants are sprayed with spores with a suspension of spores of Puccinia triticina. The plants remain in an incubation chamber at 20° C. and 100% relative humidity for 48 hours. The plants are placed in a greenhouse at a temperature of approximately 20° C. and a relative humidity of approximately 80%. Evaluation is carried out 8 days after the inoculation. In this connection, 0% means a degree of effectiveness corresponding to that of the control, while a degree of effectiveness of 100% means that no infestation is observed.

Uromyces appendiculatus = experiment: Uromyces test (beans)/protective; type: in vivo; conditions: 240 h, 100 ppm active substance, protective, evaluation 10 days after inoculation, read-out: degree of effectiveness
Method: (§1) • Solvents: 24.5 parts by weight of acetone • 24.5 parts by weight of dimethylacetamide • Emulsifier: 1 part by weight of alkylaryl polyglycol ether (polyoxyethylene (16) tristearylphenyl ether)
(§2) To prepare a suitable active substance composition, 1 part by weight of active substance is mixed with the given amounts of solvents and emulsifier and the concentrate is diluted to the desired concentration using water.
For the testing of protective effectiveness, young plants are sprayed with the active substance composition in the application rate given. After the spray coating has been dried on, the plants are inoculated with an aqueous suspension of the spores of the bean rust pathogen Uromyces appendiculatus and then remain in an incubation chamber at approximately 20° C. and 100% relative humidity for 1 day.
The plants are then placed in a greenhouse at approximately 21° C. and a relative humidity of approximately 90%.
Evaluation is carried out 10 days after the inoculation. In this connection, 0% means a degree of effectiveness corresponding to that of the control, while a degree of effectiveness of 100% means that no infestation is observed.

Alternaria solani = experiment: Alternaria test (tomato)/protective; type: in vivo; conditions: 72 h, 100 ppm active substance, protective, evaluation 3 days after inoculation, read-out: degree of effectiveness
Method: as §1, §2
For the testing of protective effectiveness, young plants are sprayed with the active substance composition in the application rate given. After the spray coating has been dried on, the plants are inoculated with an aqueous suspension of spores of Alternaria solani. The plants are then placed in an incubation chamber at approximately 20° C. and 100% relative humidity.
Evaluation is carried out 3 days after the inoculation. In this connection, 0% means a degree of effectiveness corresponding to that of the control, while a degree of effectiveness of 100% means that no infestation is observed.

Phakopsora pachyrhizi = experiment: Phakopsora test (soybean)/protective; type: in vivo; conditions: 264 h, 500 ppm active substance, protective, evaluation 11 days after inoculation, read-out: degree of effectiveness
Method: • Solvent: 28.5 parts by weight of acetone • Emulsifier: 1.5 parts by weight of polyoxyethylene alkylphenyl ether (polyoxy-ethylene (16) tristearylphenyl ether)
To prepare a suitable active substance composition, 1 part by weight of active substance is mixed with the given amounts of solvent and emulsifier and the concentrate is diluted to the desired concentration using water.
For the testing of protective effectiveness, young plants are sprayed with the active substance composition at the application rate given. One day after the spraying, the plants are sprayed with an aqueous suspension of spores of Phakopsora pachyrhizi. The plants remain in a greenhouse at 20° C. and 80% relative humidity.
Evaluation is carried out 11 days after the inoculation. In this connection, 0% means a degree of effectiveness corresponding to that of the control, while a degree of effectiveness of 100% means that no infestation is observed.

Septoria tritici = Septoria tritici test (wheat)/protective; type: in vivo; conditions: Zymoseptoria tritici, 504 h, 500 ppm active substance, protective, evaluation 21 days after inoculation, read-out: degree of effectiveness
Method: • Solvent: 50 parts by weight of N,N-dimethylacetamide • Emulsifier: 1 part by weight of alkylaryl polyglycol ether (polyoxyethylene (16) tristearylphenyl ether) To prepare a suitable active substance composition, 1 part by weight of active substance is mixed with the given amounts of solvent and emulsifier and the concentrate is diluted to the desired concentration using water. For the testing of protective effectiveness, young plants are sprayed with the active substance composition at the application rate given. After the spray coating has dried on, the plants are sprayed with a suspension of spores of Septoria tritici. The plants remain in an incubation chamber at 20° C. and 100% relative humidity for 48 hours. The plants are afterwards placed under a transparent hood at 15° C. and 100% relative humidity for a further 60 hours. The plants are placed in a greenhouse at a temperature of approximately 15° C. and a relative humidity of 80%. Evaluation is carried out 21 days after the inoculation. In this connection, 0% means a degree of effectiveness corresponding to that of the control, while a degree of effectiveness of 100% means that no infestation is observed.

| Structure (SMILES) | chromatographic logP [1] | pest or weed control at 500 ppm (Sphaerotheca fuliginea) | pest or weed control at 500 ppm (Puccinia triticina) | pest or weed control at 100 ppm (Uromyces appendiculatus) | pest or weed control at 100 ppm (Alternaria solani) | pest or weed control at 500 ppm (Phakopsora pachyrhizi) | pest or weed control at 500 ppm (Septoria tritici) |
| --- | --- | --- | --- | --- | --- | --- | --- |
| CCN(C)C=Nc1cc(C)c(Oc2nc(C(C)c3ccccc3)ns2)cc1C (centres unmarked) [Example 5, N′-(2,5-dimethyl-4-{[3-(1-phenylethyl)-1,2,4-thiadiazol-5-yl]oxy}phenyl)-N-ethyl-N-methylimidoformamide] | 1.92 | ≥ 70% | ≥ 70% | ≥ 70% | ≥ 70% | ≥ 80% |  |
| Cc1cc(Oc2nc(Cc3cccc(C(F)(F)F)c3)ns2)c(C)cc1N=CN1CCCCC1 [Example 13, 2,5-dimethyl-N-(piperidin-1-ylmethylidene)-4-({3-[3-(trifluoromethyl)benzyl]-1,2,4-thiadiazol-5-yl}oxy)aniline] | 2.28 | ≥ 70% | ≥ 70% | ≥ 70% | ≥ 70% |  | ≥ 70% |
| CCN(C)C=Nc1cc(C)c(Oc2nc(Cc3c(Cl)cccc3Cl)ns2)cc1C [Example 15, N′-(4-{[3-(2,6-dichlorobenzyl)-1,2,4-thiadiazol-5-yl]oxy}-2,5-dimethylphenyl)-N-ethyl-N-methylimidoformamide] | 2.05 | ≥ 70% | ≥ 70% | ≥ 70% | ≥ 70% |  | ≥ 70% |
| Cc1cc(Oc2nc(C(C)c3ccc(Cl)cc3)ns2)c(C)cc1N=CN(C)C(C)C (centres unmarked) [Example 19, N′-[4-({3-[1-(4-chlorophenyl)ethyl]-1,2,4-thiadiazol-5-yl}oxy)-2,5-dimethylphenyl]-N-methyl-N-(propan-2-yl)imidoformamide] | 2.46 | ≥ 70% | ≥ 70% | ≥ 70% | ≥ 70% |  | ≥ 70% |
| CCN(C)C=Nc1cc(Cl)c(Oc2nc(C(C)c3ccc(Cl)cc3)ns2)cc1C (centres unmarked) [Example 20, N′-[5-chloro-4-({3-[1-(4-chlorophenyl)ethyl]-1,2,4-thiadiazol-5-yl}oxy)-2-methylphenyl]-N-ethyl-N-methylimidoformamide] | 2.39 | ≥ 70% | ≥ 70% | ≥ 70% |  | ≥ 80% |  |
| CCN(C)C=Nc1cc(C)c(Oc2nc(Cc3ccccc3)ns2)cc1C [Example 23, N′-{4-[(3-benzyl-1,2,4-thiadiazol-5-yl)oxy]-2,5-dimethylphenyl}-N-ethyl-N-methylimidoformamide] | 1.71 | ≥ 70% | ≥ 70% | ≥ 70% | ≥ 70% |  | ≥ 70% |
| Cc1cc(Oc2nc(C(C)(C)c3ccc(Cl)cc3)ns2)c(C)cc1N=CN1CCCCC1 [Example 26, 4-({3-[2-(4-chlorophenyl)propan-2-yl]-1,2,4-thiadiazol-5-yl}oxy)-2,5-dimethyl-N-(piperidin-1-ylmethylidene)aniline] | 2.76 | ≥ 70% | ≥ 70% | ≥ 70% | ≥ 70% |  | ≥ 70% |
| CCN(C)C=Nc1cc(Cl)c(Oc2nc(C(C)(C)c3ccc(Cl)cc3)ns2)cc1C [Example 28, N′-[5-chloro-4-({3-[2-(4-chlorophenyl)propan-2-yl]-1,2,4-thiadiazol-5-yl}oxy)-2-methylphenyl]-N-ethyl-N-methylimidoformamide] | 2.73 | ≥ 70% | ≥ 70% | ≥ 70% | ≥ 70% |  | ≥ 70% |
| Cc1cc(Oc2nc(Cc3ccccc3)ns2)c(C)cc1N=CN1CCCCC1 [Example 36, 4-[(3-benzyl-1,2,4-thiadiazol-5-yl)oxy]-2,5-dimethyl-N-(piperidin-1-ylmethylidene)aniline] | 1.91 | ≥ 70% | ≥ 70% | ≥ 70% | ≥ 70% |  | ≥ 70% |
| CCN(C)C=Nc1cc(C)c(Oc2nc(Cc3ccccc3C(F)(F)F)ns2)cc1C [Example 42, N′-[2,5-dimethyl-4-({3-[2-(trifluoromethyl)benzyl]-1,2,4-thiadiazol-5-yl}oxy)phenyl]-N-ethyl-N-methylimidoformamide] | 2.1 | ≥ 70% | ≥ 70% | ≥ 70% | ≥ 70% |  | ≥ 70% |
| Cc1cc(Oc2nc(Cc3ccc(Cl)c(Cl)c3)ns2)c(C)cc1N=CN(C)C(C)C [Example 47, N′-(4-{[3-(3,4-dichlorobenzyl)-1,2,4-thiadiazol-5-yl]oxy}-2,5-dimethylphenyl)-N-methyl-N-(propan-2-yl)imidoformamide] | 2.35 | ≥ 70% | ≥ 70% | ≥ 70% | ≥ 70% |  | ≥ 70% |
| CCN(C)C=Nc1cc(C)c(Oc2nc(Cc3ccc(Cl)c(Cl)c3)ns2)cc1C [Example 51, N′-(4-{[3-(3,4-dichlorobenzyl)-1,2,4-thiadiazol-5-yl]oxy}-2,5-dimethylphenyl)-N-ethyl-N-methylimidoformamide] | 2.3 | ≥ 70% | ≥ 70% | ≥ 70% | ≥ 70% |  | ≥ 70% |
